In brackets after ≈: the same amount, converted by molar mass.
Tests used:
A549 = assay: Cytotoxicity against human A549 cells assessed as cell growth inhibition measured after 72 hrs by MTT assay; assay type: functional, cell-based; conditions: A549, 72 h
Bel-7402 = assay: Cytotoxicity against human Bel-7402 cells assessed as cell growth inhibition measured after 72 hrs by MTT assay; assay type: functional, cell-based; conditions: Bel-7402, 72 h
Staphylococcus aureus [1] = assay: Antibacterial activity against Staphylococcus aureus assessed as bacterial growth inhibition measured after 24 hrs by optical density based analysis; assay type: functional
[2] = system: Limimaricola hongkongensis; assay: Antibacterial activity against Limimaricola hongkongensis assessed as bacterial growth inhibition measured after 24 hrs by optical density based analysis; assay type: functional
Candida albicans [3] = assay: Antifungal activity against Candida albicans assessed as fungal growth inhibition; assay type: functional
[4] = Cytotoxicity against human ACC-MESO-1 cells assessed as cell growth inhibition measured after 48 hrs by WST-8 assay; assay type: functional, cell-based; conditions: ACC-MESO-1, 48 h
HeLa [5] = assay: Cytotoxicity against human HeLa cells assessed as cell growth inhibition measured after 48 hrs by WST-8 assay; assay type: functional, cell-based
JeKo-1 = assay: Cytotoxicity against human JeKo-1 cells assessed as cell growth inhibition by MTT assay; assay type: functional, cell-based
HepG2 = assay: Cytotoxicity against human HepG2 cells assessed as cell growth inhibition by MTT assay; assay type: functional, cell-based
HEp-2 = assay: Cytotoxicity against human HEp-2 cells assessed as cell growth inhibition by MTT assay; assay type: functional, cell-based
[6] = Antioxidant activity assessed as DPPH radical scavenging activity incubated for 30 mins under dark condition; assay type: functional
Aeromonas hydrophila = assay: Antibacterial activity against Aeromonas hydrophila assessed as cell growth inhibition; assay type: functional
Vibrio anguillarum = assay: Antibacterial activity against Vibrio anguillarum assessed as cell growth inhibition; assay type: functional
Vibrio harveyi = assay: Antibacterial activity against Vibrio harveyi assessed as cell growth inhibition; assay type: functional
Salmonella enterica = assay: Antibacterial activity against Salmonella enterica ATCC 6539 assessed as bacterial cell growth inhibition measured after 24 hrs by Bactiter-glo assay; assay type: functional
Staphylococcus aureus [7] = assay: Antibacterial activity against Staphylococcus aureus ATCC 25923 assessed as bacterial growth inhibition; assay type: functional, organism-based
Vibrio splendidus = assay: Antibacterial activity against Vibrio splendidus as bacterial growth inhibition; assay type: functional, organism-based
[8] = target: Prostaglandin G/H synthase 2 (Homo sapiens) (UniProt P35354); assay: Inhibition of COX2 (unknown origin) at 20 nM relative to control
Prostaglandin G/H synthase 2 (Homo sapiens), sequence (P35354 whole entry, looked up): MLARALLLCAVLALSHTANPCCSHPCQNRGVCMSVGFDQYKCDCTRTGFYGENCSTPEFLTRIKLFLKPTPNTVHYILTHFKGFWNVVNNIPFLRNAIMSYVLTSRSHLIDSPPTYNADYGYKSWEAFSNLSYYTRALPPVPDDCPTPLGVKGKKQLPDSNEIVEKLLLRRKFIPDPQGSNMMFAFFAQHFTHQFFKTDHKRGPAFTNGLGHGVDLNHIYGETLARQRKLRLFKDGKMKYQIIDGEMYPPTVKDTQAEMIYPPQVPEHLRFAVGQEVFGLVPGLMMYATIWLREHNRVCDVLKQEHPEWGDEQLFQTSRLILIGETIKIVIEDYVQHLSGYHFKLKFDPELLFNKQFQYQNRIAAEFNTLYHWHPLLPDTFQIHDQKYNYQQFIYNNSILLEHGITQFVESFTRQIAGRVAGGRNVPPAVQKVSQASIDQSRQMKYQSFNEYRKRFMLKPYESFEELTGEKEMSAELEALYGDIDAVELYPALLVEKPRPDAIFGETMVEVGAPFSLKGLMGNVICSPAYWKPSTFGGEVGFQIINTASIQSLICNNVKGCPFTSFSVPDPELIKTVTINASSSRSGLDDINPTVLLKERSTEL

Aspergillus niger = assay: Antifungal activity against Aspergillus niger MTCC 282 assessed as cell growth inhibition measured after 48 to 72 hrs; assay type: functional; conditions: time 48-72 hrs
Candida albicans [9] = assay: Antifungal activity against Candida albicans MTCC 227 assessed as cell growth inhibition measured after 48 to 72 hrs; assay type: functional; conditions: time 48-72 hrs
Saccharomyces cerevisiae = assay: Antifungal activity against Saccharomyces cerevisiae MTCC 170 assessed as cell growth inhibition measured after 48 to 72 hrs; assay type: functional; conditions: time 48-72 hrs
[10] = Antioxidant activity assessed as DPPH radical scavenging activity incubated for 30 mins by […] assay; assay type: functional
[11] = Inhibition of influenza A virus Neuraminidase N3 incubated for 10 mins by fluorescence based analysis
[12] = Cytotoxicity against human ACC-MESO-1 cells assessed as cell growth inhibition by MTT assay; assay type: functional, cell-based
HeLa [13] = assay: Cytotoxicity against human HeLa cells assessed as cell growth inhibition by MTT assay; assay type: functional, cell-based
MCF7 [14] = assay: Cytotoxicity against human MCF7 cells assessed as cell growth inhibition; assay type: functional, cell-based
SF-268 [15] = assay: Cytotoxicity against human SF-268 cells assessed as cell growth inhibition; assay type: functional, cell-based
NCI-H460 [16] = assay: Cytotoxicity against human NCI-H460 cells assessed as cell growth inhibition; assay type: functional, cell-based
SF-268 [17] = assay: Cytotoxicity against human SF-268 cells assessed as cell growth inhibition incubated for 48 hrs by MTT assay; assay type: functional, cell-based; conditions: SF-268, 48 h
MCF7 [18] = assay: Cytotoxicity against human MCF7 cells assessed as cell growth inhibition incubated for 48 hrs by MTT assay; assay type: functional, cell-based; conditions: MCF7, 48 h
NCI-H460 [19] = assay: Cytotoxicity against human NCI-H460 cells assessed as cell growth inhibition incubated for 48 hrs by MTT assay; assay type: functional, cell-based; conditions: NCI-H460, 48 h
HepG2 2.2.15 = assay: Antiproliferative activity against human HepG2.2.15 cells assessed as cell growth inhibition by MTT assay; assay type: functional, cell-based
HL-60 = assay: Antiproliferative activity against human HL-60 cells assessed as cell growth inhibition by MTT assay; assay type: functional, cell-based
P388 = assay: Cytotoxicity against mouse P388 cells assessed as cell growth inhibition by MTT assay; assay type: functional, cell-based

C=CC(C)(C)c1[nH]c2c(CC=C(C)C)cc(CC=C(C)C)cc2c1C[C@@H]1NC(=O)C(=C)NC1=O
IC50 (A549): 1.43 µM
IC50 (Bel-7402): 4.2 µM

CC(O)[C@H](NC(=O)c1cccc(NC=O)c1O)C(=O)O[C@@H](C)[C@H](OC(=O)Cc1ccccc1)[C@@H](C)C(=O)O (some centres undefined)
MIC (Staphylococcus aureus [1]): 32 µg/mL (≈ 60.3 µM)
MIC [2]: 8 µg/mL (≈ 15.1 µM)

CCC(C)C1OC(=O)/C=C/C=C/C=C/C=C/C=C/CC(O)CC(O)CC(O)CC(O)CC(O)CC(O)CC(O)CC(O)/C=C/C1C (centres undefined)
MIC (Candida albicans [3]): 25 µM (≈ 16.3 µg/mL)

O=C1CCC(=O)O[C@@H]2[C@@H](O)[C@H](O)[C@@H](COC(=O)CCC(=O)O[C@@H]3[C@@H](O)[C@H](O)[C@@H](CO1)O[C@@H]3O)O[C@@H]2O
IC50 [4]: 48 µM
IC50 (HeLa [5]): 37 µM

CC1=CCC[C@@]2(C)C=C3OC(=O)C(CO)=C3C[C@H]12
IC50 (JeKo-1): 8.4 µM

COC(=O)c1cc(O)cc2oc3cc(C)c(O)cc3c(=O)c12
IC50 (HepG2): 9 µg/mL (≈ 30 µM)
IC50 (HEp-2): 8 µg/mL (≈ 26.6 µM)

COc1c(O)c2c(c(O)c1CO)C(=O)OCC2
IC50 [6]: 25.7 µM

C[C@H](O)/C=C1/C(=O)O[C@H]([C@@H](C)O)[C@@H]1O
MIC (Aeromonas hydrophila): 8 µg/mL (≈ 39.6 µM)
MIC (Vibrio anguillarum): 8 µg/mL (≈ 39.6 µM)
MIC (Vibrio harveyi): 8 µg/mL (≈ 39.6 µM)

Cc1cc2c3c(c1C)C(C)(C)CCn3c(=O)c(=O)n2C[C@H](O)[C@H](O)[C@H](O)CO
MIC (Salmonella enterica): 12.4 µM (≈ 4.87 µg/mL)

CC(C)=CCc1cc(C[C@@]2(C(=O)O)OC(=O)C(OC(C)(C)[C@@H](O)Cc3cc(C[C@@]4(C(=O)O)OC(=O)C(O)=C4c4ccc(O)cc4)ccc3O)=C2c2ccc(O)cc2)ccc1O
IC50 (Staphylococcus aureus [7]): 1.3 µM
IC50 (Vibrio splendidus): 3.7 µM
inhibition [8]: 76.5%

C=CCOc1ccccc1O [1-hydroxy-2-allyloxybenzene]
MIC (Aspergillus niger): 200 µg/mL (≈ 1330 µM)
MIC (Candida albicans [9]): 200 µg/mL (≈ 1330 µM)
MIC (Saccharomyces cerevisiae): 200 µg/mL (≈ 1330 µM)
IC50 [10]: 22 µg/mL (≈ 146 µM)

CN1C(=O)c2cc(O)ccc2NC(=O)C12O[C@H]2c1ccccc1 (some centres undefined)
IC50 [11]: 5.02 µM

CC(/C=C/C1CC1)=C\[C@@H]1[C@@H](OC(=O)CC(C)C)[C@](C)(O)[C@@H]2[C@H]3O[C@H]3CCN12
IC50 [12]: 39 µM
IC50 (HeLa [13]): 29 µM

CC(C)[C@@H](C)/C=C/[C@@H](C)[C@H]1CC[C@H]2C3=CC(=O)N(CCO)C3=CC[C@]12C
IC50 (MCF7 [14]): 7.5 µg/mL (≈ 21 µM)
IC50 (SF-268 [15]): 7.9 µg/mL (≈ 22.1 µM)
IC50 (NCI-H460 [16]): 7.8 µg/mL (≈ 21.8 µM)

CC(C)[C@@H](C)/C=C/[C@@H](C)[C@H]1CC[C@H]2C3=CC(=O)N(CCO)[C@@]3(O)CC[C@]12C
IC50 (SF-268 [17]): 13 µg/mL (≈ 34.6 µM)
IC50 (MCF7 [18]): 18.1 µg/mL (≈ 48.2 µM)
IC50 (NCI-H460 [19]): 23.5 µg/mL (≈ 62.6 µM)

C[C@@H](O)Cc1cc(O)c2c(c1)C(=O)c1c(O)c(O)cc(O)c1C2=O
IC50 (HepG2 2.2.15): 4.63 µM

C=CC(C)(C)c1[nH]c2ccccc2c1/C=C1\NC(=O)C2(CC(C)C=CC2CCc2c(O)cc(CC=C(C)C)c(O)c2C=O)NC1=O (centres undefined)
IC50 (HL-60): 4.8 µM
IC50 (P388): 1.83 µM
